Test results: the supplement of paper PMC10627819

What was measured:
S. pneumoniae D39V [1] = assay: Bliss interaction score (quartile over a dose matrix) (fitness difference); higher = more antagonism (negative = synergy)
Method in brief: (§1)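 Each plate was normalised to the robust mean of its own no-drug wells, using OD595 at entry into stationary phase, with values capped at 1. This normalised growth is the fitness value. The Bliss score is the difference between observed and product-expected fitness, with single-drug fitness inferred from the combination data and quartiles taken over technical, biological and donor/recipient replicates.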

B. subtilis 168 = assay: as above
Method in brief: as §1

S. aureus DSM 20231 = assay: as above
Method in brief: as §1

S. aureus Newman = assay: as above
Method in brief: as §1

S. pneumoniae D39V [2] = assay: fitness (endpoint OD595 vs no drug) (fraction); higher = more growth
Method in brief: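 With the first reading as background, OD595 was measured every 30 min for 14 h in 384-well plates kept at 37 °C and inoculated at OD595 0.01. TSB, LB Lennox or CY was the medium. Fitness is the optical density at the transition into stationary phase divided by the robust mean of no-drug control wells, with a cap of 1.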
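Throughout, for Bliss interaction score (quartile over a dose matrix): first quartile when negative (synergy) and third quartile when positive (antagonism).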

C[C@H]1c2cccc(O)c2C(=O)C2=C(O)[C@]3(O)C(=O)C(C(N)=O)=C(O)[C@@H](N(C)C)[C@@H]3[C@@H](O)[C@@H]21 [Doxycycline] + C[C@@H](O)[C@H]1C(=O)N2C(C(=O)O)=C(SCCNC=N)C[C@H]12 [Imipenem]
Bliss interaction score (S. pneumoniae D39V [1]): -0.0283 | Bliss interaction score (B. subtilis 168): 0.222 | Bliss interaction score (S. aureus DSM 20231): -0.0172 | Bliss interaction score (S. aureus Newman): 0.0141 | fitness (S. pneumoniae D39V [2]; first compound 0.003875 µg/mL, partner 0.005 µg/mL, one replicate): ≥ 1 | fitness (S. pneumoniae D39V [2]; first compound 0.003875 µg/mL, partner 0.01 µg/mL, one replicate): ≥ 1 | fitness (S. pneumoniae D39V [2]; first compound 0.003875 µg/mL, partner 0.02 µg/mL, one replicate): ≥ 1 | fitness (S. pneumoniae D39V [2]; first compound 0.00775 µg/mL, partner 0.005 µg/mL, one replicate): 0.998 | fitness (S. pneumoniae D39V [2]; first compound 0.00775 µg/mL, partner 0.01 µg/mL, one replicate): 0.973 | fitness (S. pneumoniae D39V [2]; first compound 0.00775 µg/mL, partner 0.02 µg/mL, one replicate): 0.993 | fitness (S. pneumoniae D39V [2]; first compound 0.0155 µg/mL, partner 0.005 µg/mL): 0.989 | fitness (S. pneumoniae D39V [2]; first compound 0.0155 µg/mL, partner 0.0065 µg/mL): 0.886 | fitness (S. pneumoniae D39V [2]; first compound 0.0155 µg/mL, partner 0.01 µg/mL): 0.931 | fitness (S. pneumoniae D39V [2]; first compound 0.0155 µg/mL, partner 0.013 µg/mL): 0.845 | fitness (S. pneumoniae D39V [2]; first compound 0.0155 µg/mL, partner 0.02 µg/mL): 0.928 | fitness (S. pneumoniae D39V [2]; first compound 0.0155 µg/mL, partner 0.026 µg/mL): 0.746 | fitness (S. pneumoniae D39V [2]; first compound 0.031 µg/mL, partner 0.005 µg/mL, one replicate): 0.87 | fitness (S. pneumoniae D39V [2]; first compound 0.031 µg/mL, partner 0.0065 µg/mL): 0.825 | fitness (S. pneumoniae D39V [2]; first compound 0.031 µg/mL, partner 0.01 µg/mL, one replicate): 0.808 | fitness (S. pneumoniae D39V [2]; first compound 0.031 µg/mL, partner 0.013 µg/mL): 0.826 | fitness (S. pneumoniae D39V [2]; first compound 0.031 µg/mL, partner 0.02 µg/mL, one replicate): 0.834 | fitness (S. pneumoniae D39V [2]; first compound 0.031 µg/mL, partner 0.026 µg/mL): 0.789 | fitness (S. pneumoniae D39V [2]; first compound 0.062 µg/mL, partner 0.005 µg/mL, one replicate): 0.739 | fitness (S. pneumoniae D39V [2]; first compound 0.062 µg/mL, partner 0.0065 µg/mL): 0.753 | fitness (S. pneumoniae D39V [2]; first compound 0.062 µg/mL, partner 0.01 µg/mL, one replicate): 0.74 | fitness (S. pneumoniae D39V [2]; first compound 0.062 µg/mL, partner 0.013 µg/mL): 0.78 | fitness (S. pneumoniae D39V [2]; first compound 0.062 µg/mL, partner 0.02 µg/mL, one replicate): 0.706 | fitness (S. pneumoniae D39V [2]; first compound 0.062 µg/mL, partner 0.026 µg/mL): 0.759

CN(C)[C@@H]1C(O)=C(C(N)=O)C(=O)[C@@]2(O)C(O)=C3C(=O)c4c(O)ccc(Cl)c4[C@@](C)(O)[C@H]3C[C@@H]12 [Clortetracycline] + Cc1onc(-c2ccccc2)c1C(=O)N[C@@H]1C(=O)N2[C@@H]1SC(C)(C)[C@@H]2C(=O)O [Oxacillin]
Bliss interaction score (S. pneumoniae D39V [1]): 0.125 | Bliss interaction score (B. subtilis 168): 0.0896 | Bliss interaction score (S. aureus DSM 20231): 0.0471 | Bliss interaction score (S. aureus Newman): 0.0386

N#CC(C#N)=NNc1cccc(Cl)c1 [CCCP] + C[n+]1ccc(-c2cc[n+](C)cc2)cc1 [Paraquat]
Bliss interaction score (S. pneumoniae D39V [1]): 0.0866 | Bliss interaction score (B. subtilis 168): 0.0508 | Bliss interaction score (S. aureus DSM 20231): -0.0508 | Bliss interaction score (S. aureus Newman): -0.0253

CO/N=C(\C(=O)N[C@@H]1C(=O)N2C(C(=O)O)=C(COC(N)=O)CS[C@H]12)c1ccco1 [Cefuroxime] + CO[C@H]1/C=C/O[C@@]2(C)Oc3c(C)c(O)c4c(O)c(c(/C=N/N5CCN(C)CC5)c(O)c4c3C2=O)NC(=O)/C(C)=C\C=C\[C@H](C)[C@H](O)[C@@H](C)[C@@H](O)[C@@H](C)[C@H](OC(C)=O)[C@@H]1C [Rifampicin]
Bliss interaction score (S. pneumoniae D39V [1]): 0.102 | Bliss interaction score (B. subtilis 168): 0.0741 | Bliss interaction score (S. aureus DSM 20231): 0.109 | Bliss interaction score (S. aureus Newman): 0.0557

CC(=O)Oc1ccccc1C(=O)O [Acetylsalicylicacid] + CO/N=C(\C(=O)N[C@@H]1C(=O)N2C(C(=O)O)=C(COC(C)=O)CS[C@H]12)c1csc(N)n1 [Cefotaxime]
Bliss interaction score (S. pneumoniae D39V [1]): 0.138 | Bliss interaction score (B. subtilis 168): 0.172 | Bliss interaction score (S. aureus DSM 20231): -0.1 | Bliss interaction score (S. aureus Newman): -0.0434

N#CC(C#N)=NNc1cccc(Cl)c1 [CCCP] + CO/N=C(\C(=O)N[C@@H]1C(=O)N2C(C(=O)O)=C(COC(C)=O)CS[C@H]12)c1csc(N)n1 [Cefotaxime]
Bliss interaction score (S. pneumoniae D39V [1]): -0.112 | Bliss interaction score (B. subtilis 168): 0.139 | Bliss interaction score (S. aureus DSM 20231): 0.0268 | Bliss interaction score (S. aureus Newman): 0.0493

CN(C)[C@@H]1C(O)=C(C(N)=O)C(=O)[C@@]2(O)C(O)=C3C(=O)c4c(O)ccc(Cl)c4[C@@](C)(O)[C@H]3C[C@@H]12 [Clortetracycline] + CC(C1CCC(C(O1)OC2C(CC(C(C2O)OC3C(C(C(CO3)(C)O)NC)O)N)N)N)NC [Gentamicin]
Bliss interaction score (S. pneumoniae D39V [1]; main component drawn): -0.183 | Bliss interaction score (B. subtilis 168; main component drawn): 0.181 | Bliss interaction score (S. aureus DSM 20231; main component drawn): 0.0919 | Bliss interaction score (S. aureus Newman; main component drawn): 0.141

O=C(O)c1cn(C2CC2)c2cc(N3CCNCC3)c(F)cc2c1=O [Ciprofloxacin] + Oc1cc(Cl)ccc1Oc1ccc(Cl)cc1Cl [Triclosan]
Bliss interaction score (S. pneumoniae D39V [1]): 0.0508 | Bliss interaction score (B. subtilis 168): -0.0391 | Bliss interaction score (S. aureus DSM 20231): 0.0355 | Bliss interaction score (S. aureus Newman): -0.0217

N#CC(C#N)=NNc1cccc(Cl)c1 [CCCP] + N[C@@H]1CONC1=O [CycloserineD]
Bliss interaction score (S. pneumoniae D39V [1]): 0.102 | Bliss interaction score (B. subtilis 168): 0.0617 | Bliss interaction score (S. aureus DSM 20231): -0.0883 | Bliss interaction score (S. aureus Newman): -0.0487

N#CC(C#N)=NNc1cccc(Cl)c1 [CCCP] + C/C(=C\C(=O)OCCCCCCCCC(=O)O)C[C@@H]1OC[C@H](C[C@@H]2O[C@H]2[C@@H](C)[C@H](C)O)[C@@H](O)[C@H]1O [Pseudomonic acid]
Bliss interaction score (S. pneumoniae D39V [1]): 0.0939 | Bliss interaction score (B. subtilis 168): -0.137 | Bliss interaction score (S. aureus DSM 20231): 0.0141 | Bliss interaction score (S. aureus Newman): -0.0111

CN(C)[C@@H]1C(O)=C(C(N)=O)C(=O)[C@@]2(O)C(O)=C3C(=O)c4c(O)ccc(Cl)c4[C@@](C)(O)[C@H]3C[C@@H]12 [Clortetracycline] + CCN(CC)CCOC(=O)c1ccc(N)cc1 [Procaine]
Bliss interaction score (S. pneumoniae D39V [1]): -0.0498 | Bliss interaction score (B. subtilis 168): 0.0759 | Bliss interaction score (S. aureus DSM 20231): -0.0714 | Bliss interaction score (S. aureus Newman): 0.0501

CC(=O)Oc1ccccc1C(=O)O [Acetylsalicylicacid] + CN(C)c1cc(NC(=O)CNC(C)(C)C)c(O)c2c1C[C@H]1C[C@H]3[C@H](N(C)C)C(O)=C(C(N)=O)C(=O)[C@@]3(O)C(O)=C1C2=O [Tigecycline]
Bliss interaction score (S. pneumoniae D39V [1]): -0.0515 | Bliss interaction score (B. subtilis 168): -0.11 | Bliss interaction score (S. aureus DSM 20231): -0.088 | Bliss interaction score (S. aureus Newman): -0.0593

COc1ccc(C[C@H](N)C(=O)N[C@H]2[C@@H](O)[C@H](n3cnc4c(N(C)C)ncnc43)O[C@@H]2CO)cc1 [Puromycin] + Oc1cc(Cl)ccc1Oc1ccc(Cl)cc1Cl [Triclosan]
Bliss interaction score (S. pneumoniae D39V [1]): 0.102 | Bliss interaction score (B. subtilis 168): 0.0476 | Bliss interaction score (S. aureus DSM 20231): 0.0973 | Bliss interaction score (S. aureus Newman): 0.0281

C[C@@H]1O[C@@H]1P(=O)(O)O [Fosfomycin] + CN[C@H](CC(C)C)C(=O)N[C@H]1C(=O)N[C@@H](CC(N)=O)C(=O)N[C@H]2C(=O)N[C@H]3C(=O)N[C@H](C(=O)N[C@H](C(=O)O)c4cc(O)cc(O)c4-c4cc3ccc4O)[C@H](O[C@H]3C[C@](C)(N)[C@@H](O)[C@H](C)O3)c3ccc(c(Cl)c3)Oc3cc2cc(c3O[C@@H]2O[C@H](CO)[C@@H](O)[C@H](O)[C@H]2O[C@H]2C[C@](C)(NCc3ccc(-c4ccc(Cl)cc4)cc3)[C@@H](O)[C@H](C)O2)Oc2ccc(cc2Cl)[C@H]1O [Oritavancin]
Bliss interaction score (S. pneumoniae D39V [1]): -0.0314 | Bliss interaction score (B. subtilis 168): 0.0255 | Bliss interaction score (S. aureus DSM 20231): 0.0683 | Bliss interaction score (S. aureus Newman): 0.0953

CN(C)[C@@H]1C(O)=C(C(N)=O)C(=O)[C@@]2(O)C(O)=C3C(=O)c4c(O)ccc(Cl)c4[C@@](C)(O)[C@H]3C[C@@H]12 [Clortetracycline] + Clc1ccc(COC(Cn2ccnc2)c2ccc(Cl)cc2Cl)c(Cl)c1 [Miconazole]
Bliss interaction score (S. pneumoniae D39V [1]): 0.0793 | Bliss interaction score (B. subtilis 168): 0.0788 | Bliss interaction score (S. aureus DSM 20231): 0.0511 | Bliss interaction score (S. aureus Newman): 0.0716
